{
  "source": "patent US12714718B2",
  "about": "“Treatment of 22Q11.2 deletion syndrome with cannabidiol” (priority 2018, dated 2026)",
  "key": {"[1]": {"test_system": "children and adolescents with 22q11.2 Deletion Syndrome", "assay": "Aberrant Behavior Checklist-Community (ABC-C), open-label ZYN002 study", "assay_type": "in vivo, human", "details": "Week 6 and Week 14", "excerpt": "Aberrant Behavior Checklist-Community (ABC-C): The Aberrant Behavior Checklist-Community, 2nd Edition, was completed by the parent/caregiver, with support from the site staff. The ABC-C asks responders to rate behaviors from “0—not at all a problem” to “3—the problem is severe in degree” across 58 questions.\nEach application consisted of one sachet of ZYN002 CBD 4.2% concentration, containing 2.98 g of gel. […]"}, "[2]": {"test_system": "children and adolescents with 22q11.2 Deletion Syndrome", "assay": "Anxiety, Depression, and Mood Scale (ADAMS), open-label ZYN002 study", "assay_type": "in vivo, human", "details": "Week 6 and Week 14", "experimental": "(§1) Methodology: This was an open-label study to assess the safety, tolerability and efficacy of CBD administered as ZYN002, a transdermal gel, for the treatment of child and adolescent patients with 22q11.2 deletion syndrome. Male and female patients with 22q11.2 deletion syndrome were treated in Period 1 for 14 weeks with 250 mg and 500 mg of CBD (patients ≤35 kg received 250 mg CBD daily; patients >35 kg received 500 mg CBD daily). For patients with less than a 25% improvement from baseline in the ABC-C irritability subscale, the investigator could increase the total daily dose at Week 6 of treatment. Twenty male and female patients, ages 6 to <18 years, received ZYN002.\nAnxiety, Depression, and Mood Scale (ADAMS): The Anxiety, Depression, and Mood Scale was completed by the parent/caregiver, with support from the site staff. The ADAMS was used as a comprehensive assessment of anxiety, depression, and mood among the patients. […]\n(§2) Statistical Methods: Descriptive statistics (mean, median, standard deviation, minimum, and maximum) for continuous data and number (n) and percentage (%) for categorical data were determined for all efficacy and safety parameters."}, "[3]": {"test_system": "children and adolescents with 22q11.2 Deletion Syndrome", "assay": "Clinical Global Impression-Improvement (CGI-I), open-label ZYN002 study", "assay_type": "in vivo, human", "experimental": "as §1\nClinical Global Impressions Scale-Improvement: The Clinical Global Impression Scale, Improvement (CGI-I), is commonly used in clinical trials as they allow the clinician to utilize the history from the caregiver and incorporate the score into a clinical rating for the severity of symptoms. CGI-I is a 7-point scale that is used to assess how much the patient's behavioral symptoms associated with 22q11.2 deletion syndrome have improved, or worsened, relative to a baseline assessment at the beginning of the treatment.\nEach application consisted of one sachet of ZYN002 CBD 4.2% concentration, containing 2.98 g of gel. At Week 6, if the patient had less than a 25% improvement from baseline in the ABC-C irritability subscale, the investigator increased the dose as follows: • Patients who weigh ≤35 kg receiving a total daily dose of 250 mg CBD had their daily dose increased to 500 mg. Each application consisted of two sachets of ZYN002 CBD 4.2% concentration, containing 2.98 g of gel. • Patients >35 kg received 250 mg CBD applied Q12H (±2 hours); total daily dose of 500 mg CBD. […]\nas §2"}, "[4]": {"test_system": "children and adolescents with 22q11.2 Deletion Syndrome", "assay": "Pediatric Anxiety Rating Scale (PARS), open-label ZYN002 study", "assay_type": "in vivo, human", "details": "Week 14", "experimental": "as §1\nPediatric Anxiety Rating Scale (PARS): The PARS is a clinician-rated caregiver interview that covers 61 behaviors related to anxiety (Riddle M A, et al, The Pediatric Anxiety Rating Scale (PARS) Development and Psychometric Properties, J. Am. Acad. Child Adolesc. Psychiatry, 2002, 4(9):1061-1069). The PARS provides broad coverage of separation anxiety, social phobia, and generalized anxiety. […] The interviewer assesses the severity by quantifying the frequency and degree of interference and avoidance in family, school and community settings. Each of seven severity items is scored on a scale of 1 to 5, with 5 being the most severe and frequent. […]"}, "[5]": {"test_system": "children and adolescents with 22q11.2 Deletion Syndrome", "assay": "Safety and tolerability monitoring, open-label ZYN002 study", "assay_type": "in vivo, human", "details": "up to 14 weeks", "experimental": "as §1\nSafety Monitoring: Patient safety was monitored at each study visit using standard measures, including physical and neurological exams, examination of skin at application sites for irritation, vital signs, 12-lead ECGs, the C-SSRS, safety laboratory tests, and AE monitoring.\nEach application consisted of one sachet of ZYN002 CBD 4.2% concentration, containing 2.98 g of gel. At Week 6, if the patient had less than a 25% improvement from baseline in the ABC-C irritability subscale, the investigator increased the dose as follows: • Patients who weigh ≤35 kg receiving a total daily dose of 250 mg CBD had their daily dose increased to 500 mg. […]"}, "[6]": {"details": "cited from earlier work"}, "[7]": {"test_system": "adults with social phobia", "details": "crossover trial; cited from earlier work"}, "children and adults": {"test_system": "children and adults", "details": "in vivo; cited from earlier work"}},
  "data": [
    {"compound": "C=C(C)C1CCC(C)=CC1c1c(O)cc(CCCCC)cc1O", "note": "(stereo not shown) [CBD, 2-[3-methyl-6-(1-methylethenyl)-2-cyclohexen-1-yl]-5-pentyl-1,3-benzenediol]", "values": [
      {"measurement": "ABC-C all five subscales vs baseline, in words", "setting": "[1]", "result": "statistically and clinically meaningful improvements"},
      {"measurement": "ADAMS total score and all five subscales vs baseline, in words", "setting": "[2]", "result": "statistically significant improvements"},
      {"measurement": "patients being much improved or very much improved (CGI-I)", "setting": "[3]", "result": 62.5, "unit": "%"},
      {"measurement": "patients rated by clinicians as improved, much-improved or very much improved (CGI-I)", "setting": "[3]", "result": "Seventy-five"},
      {"measurement": "CGI-I, majority of patients, in words", "setting": "[3]; Week 6 and Week 14", "result": "clinically meaningful improvements"},
      {"measurement": "PARS vs baseline, in words", "setting": "[4]", "result": "statistically significant improvements"},
      {"measurement": "tolerability of transdermal administration", "setting": "[5]", "result": "well tolerated"},
      {"measurement": "solubility in water, in words", "setting": "[6]", "result": "virtually insoluble in water"},
      {"measurement": "physiological and cognitive indicators of anxiety", "setting": "[7]", "result": "significant and clinically meaningful reductions"},
      {"measurement": "tolerability in children and adults", "setting": "children and adults", "result": "generally well tolerated"}
    ]}
  ]
}
